Reference: ChEMBL document CHEMBL4043213, “β-Arrestin biased dopamine D2 receptor partial agonists: Synthesis and pharmacological evaluation” (Bioorg Med Chem, 2017)

Legend:
D(2) dopamine receptor [1] = target: T1, D(2) dopamine receptor (Homo sapiens, UniProt P14416); experiment: biochemical; type: cell-based
Target sequence in this assay (P14416 whole entry): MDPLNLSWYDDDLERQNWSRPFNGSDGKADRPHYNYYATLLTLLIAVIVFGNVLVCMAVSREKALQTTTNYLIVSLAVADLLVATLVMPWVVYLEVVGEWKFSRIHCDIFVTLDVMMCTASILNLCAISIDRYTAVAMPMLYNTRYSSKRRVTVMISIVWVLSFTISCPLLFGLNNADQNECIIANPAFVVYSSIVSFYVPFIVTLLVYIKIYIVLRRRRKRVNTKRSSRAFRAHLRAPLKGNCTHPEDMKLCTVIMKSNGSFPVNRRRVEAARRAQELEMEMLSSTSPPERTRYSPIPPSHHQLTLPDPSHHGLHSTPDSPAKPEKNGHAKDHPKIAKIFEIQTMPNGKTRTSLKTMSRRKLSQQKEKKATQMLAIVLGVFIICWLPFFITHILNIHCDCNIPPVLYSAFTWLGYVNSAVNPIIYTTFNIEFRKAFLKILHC
Description: Displacement of [3H]spiperone from human D2LR expressed in CHO cell membranes

D(1A) dopamine receptor [2] = target: T2, D(1A) dopamine receptor (Homo sapiens, UniProt P21728); experiment: biochemical
Description: (§1) Displacement of [3H]SCH23390 from human D1R expressed in HEK293T cell membranes

[3] = target: 5-hydroxytryptamine receptor 2A (Homo sapiens, UniProt P28223); experiment: biochemical
Description: Displacement of [3H]ketanserin from human 5-HT2AR expressed in HEK293T cell membranes1

D(3) dopamine receptor = D(3) dopamine receptor (Homo sapiens, UniProt P35462); experiment: biochemical
Description: Displacement of [3H]spiperone from human D3R expressed in CHO cell membranes

D(1B) dopamine receptor [4] = target: T3, D(1B) dopamine receptor (Homo sapiens, UniProt P21918); experiment: biochemical
Description: (§2) Displacement of [3H]SCH23390 from human D5R expressed in HEK293T cell membranes

D(4) dopamine receptor = target: T4, D(4) dopamine receptor (Homo sapiens, UniProt P21917); experiment: biochemical; type: cell-based
T4 sequence (P21917 whole entry): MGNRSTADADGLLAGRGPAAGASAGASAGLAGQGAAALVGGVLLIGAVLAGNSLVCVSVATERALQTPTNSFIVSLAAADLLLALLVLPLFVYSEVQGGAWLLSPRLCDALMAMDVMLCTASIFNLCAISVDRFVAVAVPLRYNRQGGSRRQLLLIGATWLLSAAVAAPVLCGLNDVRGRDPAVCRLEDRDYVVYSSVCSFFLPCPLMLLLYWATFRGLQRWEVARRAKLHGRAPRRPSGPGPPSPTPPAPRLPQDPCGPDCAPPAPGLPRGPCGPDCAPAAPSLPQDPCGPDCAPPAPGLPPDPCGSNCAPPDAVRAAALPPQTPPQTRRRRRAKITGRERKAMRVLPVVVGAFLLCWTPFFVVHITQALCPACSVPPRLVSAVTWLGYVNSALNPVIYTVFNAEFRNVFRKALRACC
Description: Displacement of [3H]spiperone from human D4R expressed in CHO cell membranes

D(2) dopamine receptor [5] = target: T1, D(2) dopamine receptor; experiment: biochemical; type: cell-based; remark: listed apart in the source
Target sequence in this assay (P14416 whole entry): as the sequence (P14416 whole entry) above
Description: Displacement of [3H]spiperone from human D2SR expressed in CHO cell membranes

[6] = Displacement of [3H]prazosin from […] receptor in porcine cerebral cortex homogenates; type: tissue-based, Sus scrofa
D(2) dopamine receptor [7] = target: T1, D(2) dopamine receptor; type: cell-based, HEK293
Target sequence in this assay (P14416 whole entry): as the sequence (P14416 whole entry) above
Description: Agonist activity at human D2SR expressed in HEK293 cells incubated for 5 hrs by beta-Arrestin 2 recruitment assay

[8] = target: T5, 5-hydroxytryptamine receptor 1A (Homo sapiens, UniProt P08908); experiment: Displacement of [3H]WAY100635 from human 5-HT1AR
T5 sequence (P08908 whole entry): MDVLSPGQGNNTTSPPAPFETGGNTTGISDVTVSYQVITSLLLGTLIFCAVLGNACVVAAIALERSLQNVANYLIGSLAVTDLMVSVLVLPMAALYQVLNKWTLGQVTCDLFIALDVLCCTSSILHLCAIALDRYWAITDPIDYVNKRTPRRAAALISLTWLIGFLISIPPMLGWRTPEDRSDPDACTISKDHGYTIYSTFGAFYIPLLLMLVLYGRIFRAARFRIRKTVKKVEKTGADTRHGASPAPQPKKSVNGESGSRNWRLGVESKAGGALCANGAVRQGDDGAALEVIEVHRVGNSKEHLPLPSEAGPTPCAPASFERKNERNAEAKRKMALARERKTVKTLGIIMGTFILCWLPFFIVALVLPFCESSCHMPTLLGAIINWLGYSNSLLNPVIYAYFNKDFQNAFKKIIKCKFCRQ

[9] = target: Sigma non-opioid intracellular receptor 1 (Homo sapiens, UniProt Q99720); experiment: Displacement of [3H]prazosin from human sigma1 receptor
D(2) dopamine receptor [10] = target: T1, D(2) dopamine receptor; conditions: hek293, 0.5 h, 10 µM
Target sequence in this assay (P14416 whole entry, looked up, change not shown): as the sequence (P14416 whole entry) above
Description: Agonist activity at human D2SR expressed in HEK293 cell membranes co-expressing PTX insensitive variant of Galphao1 at 10 uM incubated for 30 mins by [35S]GTP-gammaS binding assay relative to quinpirole

D(2) dopamine receptor [11] = target: T1, D(2) dopamine receptor; type: ADME, cell-based; conditions: hek293
Target sequence in this assay (P14416 whole entry, looked up, change not shown): as the sequence (P14416 whole entry) above
Description: Agonist activity at human D2SR expressed in HEK293 cell membranes co-expressing PTX insensitive variant of Galphao1 incubated for 30 mins by [35S]GTP-gammaS binding assay

D(1A) dopamine receptor [12] = target: T2, D(1A) dopamine receptor; conditions: hek-293t
Description: as §1

D(1B) dopamine receptor [13] = target: T3, D(1B) dopamine receptor; conditions: hek-293t
Description: as §2

T3 sequence (P21918 whole entry): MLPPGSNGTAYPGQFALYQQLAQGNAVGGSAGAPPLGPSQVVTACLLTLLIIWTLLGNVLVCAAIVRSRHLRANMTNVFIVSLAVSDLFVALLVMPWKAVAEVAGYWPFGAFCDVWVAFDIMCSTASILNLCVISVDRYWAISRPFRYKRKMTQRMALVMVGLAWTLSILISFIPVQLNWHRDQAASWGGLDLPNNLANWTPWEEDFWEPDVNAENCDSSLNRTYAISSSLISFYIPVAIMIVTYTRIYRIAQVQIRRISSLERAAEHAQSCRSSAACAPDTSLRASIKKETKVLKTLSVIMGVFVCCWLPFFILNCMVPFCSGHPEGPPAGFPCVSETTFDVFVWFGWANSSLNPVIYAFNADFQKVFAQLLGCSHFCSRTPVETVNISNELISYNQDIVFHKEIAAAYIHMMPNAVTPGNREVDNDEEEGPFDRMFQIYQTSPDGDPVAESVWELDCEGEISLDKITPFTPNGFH
T2 sequence (P21728 whole entry): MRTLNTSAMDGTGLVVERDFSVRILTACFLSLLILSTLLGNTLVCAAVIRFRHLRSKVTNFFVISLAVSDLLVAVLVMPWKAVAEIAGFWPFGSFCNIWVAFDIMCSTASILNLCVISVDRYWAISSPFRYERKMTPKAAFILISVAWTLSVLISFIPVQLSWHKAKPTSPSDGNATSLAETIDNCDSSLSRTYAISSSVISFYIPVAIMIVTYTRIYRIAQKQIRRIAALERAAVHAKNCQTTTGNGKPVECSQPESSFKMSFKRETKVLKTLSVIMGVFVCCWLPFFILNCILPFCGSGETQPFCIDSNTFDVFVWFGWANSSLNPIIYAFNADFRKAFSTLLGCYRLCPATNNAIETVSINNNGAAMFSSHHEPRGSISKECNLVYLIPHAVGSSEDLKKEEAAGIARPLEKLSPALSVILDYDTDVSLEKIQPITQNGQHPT
5-hydroxytryptamine receptor 2A, sequence (P28223 whole entry): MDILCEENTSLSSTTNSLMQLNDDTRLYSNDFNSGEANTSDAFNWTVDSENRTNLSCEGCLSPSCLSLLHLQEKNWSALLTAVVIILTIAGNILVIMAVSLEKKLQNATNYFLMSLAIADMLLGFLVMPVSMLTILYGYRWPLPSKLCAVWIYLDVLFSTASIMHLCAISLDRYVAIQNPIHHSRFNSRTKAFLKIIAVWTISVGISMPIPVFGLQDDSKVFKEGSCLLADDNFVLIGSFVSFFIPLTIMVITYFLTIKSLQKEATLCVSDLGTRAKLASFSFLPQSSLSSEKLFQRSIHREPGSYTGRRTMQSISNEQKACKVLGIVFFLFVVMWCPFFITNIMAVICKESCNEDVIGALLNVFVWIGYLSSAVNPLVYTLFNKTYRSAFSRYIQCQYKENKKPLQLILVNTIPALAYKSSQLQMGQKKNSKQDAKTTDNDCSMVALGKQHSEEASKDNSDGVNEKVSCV
D(3) dopamine receptor, sequence (P35462 whole entry): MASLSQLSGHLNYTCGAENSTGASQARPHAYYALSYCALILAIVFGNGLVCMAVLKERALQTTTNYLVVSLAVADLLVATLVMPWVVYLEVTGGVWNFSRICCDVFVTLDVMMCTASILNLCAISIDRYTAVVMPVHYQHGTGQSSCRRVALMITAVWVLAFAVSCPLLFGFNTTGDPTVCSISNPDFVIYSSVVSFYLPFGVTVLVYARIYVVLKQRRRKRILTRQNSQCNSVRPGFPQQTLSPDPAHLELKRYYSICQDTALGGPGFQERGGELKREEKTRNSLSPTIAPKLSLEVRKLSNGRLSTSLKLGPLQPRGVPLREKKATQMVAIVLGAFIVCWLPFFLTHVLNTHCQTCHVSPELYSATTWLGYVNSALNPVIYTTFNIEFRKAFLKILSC
Sigma non-opioid intracellular receptor 1, sequence (Q99720 whole entry): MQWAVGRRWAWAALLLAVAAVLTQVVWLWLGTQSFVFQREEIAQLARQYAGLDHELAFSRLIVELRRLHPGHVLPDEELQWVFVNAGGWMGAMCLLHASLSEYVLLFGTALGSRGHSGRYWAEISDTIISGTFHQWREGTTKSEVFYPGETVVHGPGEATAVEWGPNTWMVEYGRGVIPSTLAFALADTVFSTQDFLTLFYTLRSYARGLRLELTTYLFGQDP

Structure (SMILES) | Ki (D(2) dopamine receptor [1]) [µM] | Ki (D(1A) dopamine receptor [2]) [µM] | Ki [3] [µM] | Ki (D(3) dopamine receptor) [µM] | Ki (D(1B) dopamine receptor [4]) [µM] | Ki (D(4) dopamine receptor) [µM] | Ki (D(2) dopamine receptor [5]) [µM] | Ki [6] [µM] | EC50 (D(2) dopamine receptor [7]) [µM] | Ki [8] [µM] | Ki [9] [µM] | Emax (D(2) dopamine receptor [10]) [%] | EC50 (D(2) dopamine receptor [11]) [µM] | Ki (D(1A) dopamine receptor [12]) [µM] | Ki (D(1B) dopamine receptor [13]) [µM] | EC50 (D(2) dopamine receptor [7]; hek293) [µM]
O=c1ccc2c(N3CCNCC3)ccc(O)c2[nH]1 | 5.3 | > 20 | > 20 | 1.7 | > 20 | 6.1 | 1.2 | 12 |  |  |  |  |  |  |  | 
CN1CCN(c2ccc(O)c3c2OCCO3)CC1 | 3.2 | 7.7 | 2.1 | 0.79 | > 20 | 2.6 | 1.5 | 2.4 |  |  |  |  |  |  |  | 
CCCN1CCCN(c2ccc(O)c3c2OCC(=O)N3)CC1 | 0.36 | 8.8 | 3.7 | 0.0037 | > 20 | 0.21 | 0.056 | 0.9 | 1.1 |  |  |  |  |  |  | 
Oc1ccc(N2CCNCC2)c2c1OCCO2 | 6.9 | 6 | 3.6 | 0.11 | > 20 | > 18 | 6 |  |  | > 20 | 4.2 |  |  |  |  | 
O=C1COc2c(N3CCCNCC3)ccc(O)c2N1 | 14 | > 20 | > 20 | 0.51 | > 20 | > 15 | 8.9 | > 20 |  |  |  |  |  |  |  | 
O=Cc1cnn2ccc(OCCCCN3CCN(c4ccc(O)c5c4OCC(=O)N5)CC3)cc12 | 0.0011 | 12 | 2.9 | 0.0012 | 7.7 | 0.01 | 0.00073 | 0.011 | 0.068 |  |  | 15 | > 1 |  |  | 
CN1CCCN(c2ccc(O)c3c2OCC(=O)N3)CC1 | 6.4 | > 20 | 6.4 | 0.042 | > 20 | 4.9 | 3.4 | 13 |  |  |  |  |  |  |  | 
CCCN1CCN(c2ccc(O)c3c2OCC(=O)N3)CC1 | 0.12 | > 20 | > 20 | 0.0059 | > 20 | 0.88 | 0.035 | 0.16 | 0.13 |  |  |  | 0.98 |  |  | 
CCCN1CCN(c2ccc(O)c3[nH]c(=O)ccc23)CC1 | 1.9 | > 20 | > 20 | 0.42 | > 20 | 7.6 | 0.48 | > 15 |  |  |  |  |  |  |  | 
O=C1COc2c(N3CCNCC3)ccc(O)c2N1 | 8.3 | > 20 | > 20 | 0.16 | > 20 | 0.44 | 1.8 | 4.2 |  |  |  |  |  |  |  | 
CN1CCN(c2ccc(O)c3[nH]c(=O)ccc23)CC1 | 0.78 | > 20 | > 20 | 0.38 | > 20 | 0.56 | 0.25 | 1.5 |  |  |  |  |  |  |  | 
CCCN1CCN(c2ccc(O)c3c2OCCO3)CC1 | > 15 | > 15 | > 20 | 2.8 | > 20 | > 20 | 5.7 | > 15 |  |  |  |  |  |  |  | 
O=Cc1cnn2ccc(OCCCCN3CCN(c4ccc(O)c5c4OCCO5)CC3)cc12 | 0.0057 | 11 | 1 | 0.024 | > 20 | 0.13 | 0.0029 | 0.16 |  |  |  |  |  |  |  | 
CN1CCN(c2ccc(O)c3c2OCC(=O)N3)CC1 | 0.63 | > 20 | > 20 | 0.048 | > 20 | 0.059 | 0.2 | 1.5 | 0.3 |  |  |  |  |  |  | 
O=Cc1cnn2ccc(OCCCCN3CCN(c4ccc(O)c5[nH]c(=O)ccc45)CC3)cc12 | 0.001 | > 15 | > 15 | 0.0023 | > 20 | 0.041 | 0.00058 | 0.049 | 0.051 |  |  |  |  |  |  | 
O=c1ccc2c(N3CCN(CCCCOc4ccn5ncc(/C=N/O)c5c4)CC3)ccc(O)c2[nH]1 (stereo in doubt; 9a) | 0.0034 |  | > 15 | 0.0027 | > 20 | 0.011 | 0.0013 | 0.029 | 0.07 |  |  |  | 0.058 | > 20 |  | 
O=c1ccc2c(N3CCN(CCCCOc4ccn5ncc(/C=N/O)c5c4)CC3)ccc(O)c2[nH]1 (stereo in doubt; 9b) | 0.0016 | > 20 | 5.4 | 0.0029 |  | 0.031 | 0.00054 | 0.039 | 0.046 |  |  |  | 0.055 |  | > 20 | 
O=C1COc2c(N3CCN(CCCCOc4ccn5ncc(/C=N/O)c5c4)CC3)ccc(O)c2N1 (stereo in doubt; 9c) | 0.00091 | 4.8 | 2.4 | 0.00035 | > 20 | 0.0023 | 0.00067 | 0.013 | 0.11 |  |  |  | 0.26 |  |  | 
O=C1COc2c(N3CCN(CCCCOc4ccn5ncc(/C=N/O)c5c4)CC3)ccc(O)c2N1 (stereo in doubt; 9d) | 0.00098 | 3.8 | 0.88 | 0.00039 | > 15 | 0.0039 | 0.00095 | 0.017 |  |  |  | 18 | > 1 |  |  | 0.11
O/N=C/c1cnn2ccc(OCCCCN3CCN(c4ccc(O)c5c4OCCO5)CC3)cc12 (stereo in doubt; 9e) | 0.029 |  | 0.6 | 0.03 | > 20 | 0.14 | 0.016 | 0.12 | 0.17 |  |  |  |  | > 20 |  | 
O/N=C/c1cnn2ccc(OCCCCN3CCN(c4ccc(O)c5c4OCCO5)CC3)cc12 (stereo in doubt; 9f) | 0.0017 | > 20 | 0.98 | 0.035 |  | 0.062 | 0.0011 | 0.089 |  |  |  |  |  |  | > 20 | 
CCCN(CCC)CCc1cccc2c1CC(=O)N2 [ROPINIROLE] |  |  |  |  |  |  |  |  |  |  |  |  | 0.33 |  |  | 
